Earlier results as cited in US4652627A, “Calcitonin analogs with C-terminal D-amino acid substituents” (priority 1985, dated 1987).
Positions of bridges follow the written chain, without caps; N, C: chain ends. No end group written: not given here.

Conditions: relative to human calcitonin = 100%

| Substance | activity [%] |
| --- | --- |
| deletion of the entire prolinamide moiety: human calcitonin with the entire C-terminal prolinamide moiety deleted (CGNLSTCMLGTYTQDFNKFHTFPQTAIGVGA; ends and bridges not checked; cysteine pairing not given here; UniProt P01258 85-115, looked up, fragment) | 0.12 |
| human calcitonin (CGNLSTCMLGTYTQDFNKFHTFPQTAIGVGAP-NH2; disulfide 1-7; ends not checked; UniProt P01258 85-116, looked up) [natural 32 amino acid calcitonin of human origin with C-terminal prolinamide] | 100 |
